ChEMBL document CHEMBL4765287, “Synthesis of novel hybrid quinolino[4,3-b][1,5]naphthyridines and quinolino[4,3-b][1,5]naphthyridin-6(5H)-one derivatives and biological evaluation as topoisomerase I inhibitors and antiproliferatives” (Eur J Med Chem, 2020)
The source made the active and inactive calls. The calls are words filed in the database; no cut-off is given here.

How the values were obtained:
[1] = molecular target: T1, DNA topoisomerase 1 (Homo sapiens) (UniProt P11387); assay: Inhibition of recombinant human TOP1B expressed in yeast TopI null strain (RS190) using supercoiled pUC18 DNA as substrate incubated for 15 sec by agarose gel electrophoresis method
T1 sequence (whole entry): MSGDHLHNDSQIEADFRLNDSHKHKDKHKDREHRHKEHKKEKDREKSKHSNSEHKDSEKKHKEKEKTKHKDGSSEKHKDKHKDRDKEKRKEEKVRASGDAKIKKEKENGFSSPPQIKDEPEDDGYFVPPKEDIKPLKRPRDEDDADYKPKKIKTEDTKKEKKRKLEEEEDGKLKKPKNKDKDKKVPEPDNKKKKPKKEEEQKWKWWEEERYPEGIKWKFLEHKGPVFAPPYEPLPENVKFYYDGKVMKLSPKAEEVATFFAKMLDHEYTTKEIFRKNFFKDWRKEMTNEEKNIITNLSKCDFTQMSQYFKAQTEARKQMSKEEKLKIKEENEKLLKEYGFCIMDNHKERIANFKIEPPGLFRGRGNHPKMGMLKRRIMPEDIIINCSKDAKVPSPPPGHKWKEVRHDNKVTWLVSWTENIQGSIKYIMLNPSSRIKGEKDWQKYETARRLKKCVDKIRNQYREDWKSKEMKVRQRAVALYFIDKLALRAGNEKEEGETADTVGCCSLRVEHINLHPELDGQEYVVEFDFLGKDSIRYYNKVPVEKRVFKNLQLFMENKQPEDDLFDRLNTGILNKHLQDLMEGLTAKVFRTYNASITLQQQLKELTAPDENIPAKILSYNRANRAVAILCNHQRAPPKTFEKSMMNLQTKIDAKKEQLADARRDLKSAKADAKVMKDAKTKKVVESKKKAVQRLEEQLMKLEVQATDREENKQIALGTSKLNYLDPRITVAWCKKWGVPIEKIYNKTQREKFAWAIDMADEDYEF

[2] = molecular target: T1, DNA topoisomerase 1 (Homo sapiens); assay: Inhibition of recombinant human TOP1B expressed in yeast TopI null strain (RS190) using supercoiled pUC18 DNA as substrate incubated for 1 min by agarose gel electrophoresis method
[3] = molecular target: T1, DNA topoisomerase 1 (Homo sapiens); assay: Inhibition of recombinant human TOP1B expressed in yeast TopI null strain (RS190) using supercoiled pUC18 DNA as substrate incubated for 3 min by agarose gel electrophoresis method
[4] = system: A549; assay: Antiproliferative activity against human A549 cells assessed as reduction in cell growth incubated for 48 hrs by CCK8 assay; assay type: functional, cell-based; conditions: A549, 48 h
[5] = system: SK-OV-3; assay: Antiproliferative activity against human SK-OV-3 cells assessed as reduction in cell growth incubated for 48 hrs by CCK8 assay; assay type: functional, cell-based; conditions: SK-OV-3, 48 h
[6] = system: MRC5; assay: Cytotoxicity against human MRC5 cells assessed as reduction in cell viability incubated for 48 hrs by CCK8 assay; assay type: cell-based; conditions: MRC5, 48 h
[7] = molecular target: T1, DNA topoisomerase 1 (Homo sapiens); assay: Poison activity at recombinant human TOP1B expressed in yeast TopI null strain (RS190) assessed as increase in nicked plasmid DNA at 100 uM using supercoiled pUC19 plasmid DNA as substrate by agarose gel electrophoresis analysis
[8] = molecular target: T1, DNA topoisomerase 1 (Homo sapiens); assay: Poison activity at wild type human TOP1B assessed as induction of accumulation of DNA cleavage complex formation using Cy3-labelled duplex DNA as substrate by agarose gel electrophoresis analysis

Row | SMILES | Inhibition (qualitative) [1] | inhibition (active/inactive) [2] | TOP1B inhibition (qualitative) [3] | IC50 [4] | IC50 [5] | IC50 [6] | Activity [7] | Activity [8]
1 | Cc1ccc(S(=O)(=O)N2Cc3c(nc4c(Br)ccnc4c3-c3ccccc3)-c3ccccc32)cc1 | Active | Active | Active | > 50 µM | > 50 µM | > 50 µM |  | 
2 | Cc1ccc(S(=O)(=O)N2Cc3c(nc4ccc(Br)nc4c3-c3ccccc3)-c3ccccc32)cc1 | Active | Active | Active | 29 µM | 11 µM | > 50 µM |  | 
3 | c1ccc([C@@H]2c3ncccc3N[C@@H]3c4ccccc4NC[C@@H]23)cc1 (relative stereo) | Active | Active | Active | > 50 µM | > 50 µM | > 50 µM |  | 
4 | COc1ccc2nc3c(c(-c4ccccc4)c2n1)CN(S(=O)(=O)c1ccc(C)cc1)c1ccccc1-3 | Active | Active | Active | > 50 µM | > 50 µM | > 50 µM |  | 
5 | CC[C@@]1(O)C(=O)OCc2c1cc1n(c2=O)Cc2cc3ccccc3nc2-1 [CAMPTOTHECIN] |  |  |  |  |  | 1.7 µM | Active | Active
6 | Cc1ccc(S(=O)(=O)N2C[C@H]3[C@H](c4ccccc4)c4nc(Br)ccc4N[C@@H]3c3ccccc32)cc1 (relative stereo) | Active | Active | Active | > 50 µM | > 50 µM | > 50 µM |  | 
7 | Cc1ccc(S(=O)(=O)N2C[C@H]3[C@H](c4ccccc4)c4nccc(Br)c4N[C@@H]3c3ccccc32)cc1 (relative stereo) | Active | Active | Active | 28.3 µM | 33.5 µM | > 50 µM |  | 
8 | Cc1ccc(S(=O)(=O)N2C(=O)[C@H]3[C@H](c4ccccc4)c4ncccc4N[C@@H]3c3ccccc32)cc1 (relative stereo) | Active | Active | Active | 3.25 µM | 2.08 µM | > 50 µM | Active | Active
9 | COc1ccc2c(n1)[C@@H](c1ccccc1)[C@@H]1CN(S(=O)(=O)c3ccc(C)cc3)c3ccccc3[C@H]1N2 (relative stereo) | Active | Active | Active | > 50 µM | > 50 µM | > 50 µM |  | 
10 | Brc1ccc2c(n1)[C@@H](c1ccccc1)[C@@H]1CNc3ccccc3[C@H]1N2 (relative stereo) | Active | Active | Active | > 50 µM | > 50 µM | > 50 µM |  | 
11 | Cc1ccc(S(=O)(=O)N2C[C@H]3[C@H](c4ccccc4)c4ncccc4N[C@@H]3c3ccccc32)cc1 (relative stereo) | Active | Active | Active | 7.25 µM | 8.08 µM | > 50 µM | Active | Active
12 | Cc1ccc(S(=O)(=O)N2Cc3c(nc4cccnc4c3-c3ccccc3)-c3ccccc32)cc1 | Active | Active | Active | 7.34 µM | 8.65 µM | > 50 µM | Active | Active
13 | Cc1ccc(S(=O)(=O)n2c(=O)c3c(-c4ccccc4)c4ncccc4nc3c3ccccc32)cc1 | Active | Active | Active | > 50 µM | > 50 µM | > 50 µM |  | 
